This note sets out measurements from patent US10766884B2 (Pfizer Inc., priority 2018, dated 2020).

Molecules are shown by their SMILES. pIC50, pKi: −log10 of the molar value.

Test [1] has as its target CDK4 (Homo sapiens (Human), UniProt P11802). Kind of test: Phospho-Serine 795 Rb ELISA assay in JEKO-1 cells. The test is classed as cell-based. The settings on record: overnight treatment, phospho-Rb S795, read-out: CDK4 pRB S795 ELISA JEKO-1 cells IC50. The procedure:
(§1) JEKO-1 or MV4-11 cells were seeded at 15,000 or 20,000 cells per well, respectively, in 100 μL growth media and allowed to incubate at 37° C. with 5% CO2 overnight. The following day, compounds were serially diluted from a 10 mM top dose for an 11-point 3-fold dilution curve in DMSO. Compounds were intermediately diluted 1:200 into growth media prior to diluting 1:5 on cells for final concentration 10 μM to 0.1 nM in 0.1% DMSO on cells. JEKO-1 and MV4-11 cells were treated were treated overnight, at 37° C. with 5% CO2. Cells were lysed in 100 μL/well CST lysis buffer on ice and transferred to pre-coated and blocked anti-phospho-Ser795 Rb ELISA plates for overnight incubation at 4° C. Plates were washed to remove residual, unbound cellular proteins and total Rb detection antibody added for 90 minutes at 37° C. Following wash to remove unbound total Rb antibody, the HRP tagged antibody was allowed to bind for 30 minutes at 37° C. Following wash to remove unbound HRP antibody, Glo Substrate Reagent was added and incubated protected from light for 5 to 10 minutes. Plates were read in luminescence mode and IC50 values calculated.

Test [2] has as its target CDK6 (Homo sapiens (Human), UniProt Q00534). Kind of test: Phospho-Serine 795 Rb ELISA assay in MV4-11 cells. The test is classed as cell-based. The settings on record: overnight treatment, phospho-Rb S795, read-out: CDK6 pRB S795 ELISA MV4-11 cells IC50. Here is the method:
as §1
For orientation: In an ELISA, binding on a coated surface is turned into a signal by an enzyme label.

In test [3] the target is CDK4/Cyclin D1 (Homo sapiens (Human), UniProt P11802). In words: CDK4/Cyclin D1 mobility shift assay. As to conditions: activated CDK4/Cyclin D1, 3.5 mM ATP, Morrison fit; read-out: CDK4D1 Ki. The test is classed as biochemical.
CDK4/Cyclin D1, sequence (P11802 whole entry): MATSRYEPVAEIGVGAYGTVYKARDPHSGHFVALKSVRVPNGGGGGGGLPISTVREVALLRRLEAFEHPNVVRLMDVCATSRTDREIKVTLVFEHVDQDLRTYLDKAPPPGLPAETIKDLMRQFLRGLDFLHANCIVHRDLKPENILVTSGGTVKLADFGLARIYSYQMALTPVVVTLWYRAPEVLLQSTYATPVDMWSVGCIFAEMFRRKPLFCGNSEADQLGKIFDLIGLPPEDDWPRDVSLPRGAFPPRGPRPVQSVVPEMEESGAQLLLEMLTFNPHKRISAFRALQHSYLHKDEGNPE
CDK4/Cyclin D1, sequence (P24385 whole entry partner): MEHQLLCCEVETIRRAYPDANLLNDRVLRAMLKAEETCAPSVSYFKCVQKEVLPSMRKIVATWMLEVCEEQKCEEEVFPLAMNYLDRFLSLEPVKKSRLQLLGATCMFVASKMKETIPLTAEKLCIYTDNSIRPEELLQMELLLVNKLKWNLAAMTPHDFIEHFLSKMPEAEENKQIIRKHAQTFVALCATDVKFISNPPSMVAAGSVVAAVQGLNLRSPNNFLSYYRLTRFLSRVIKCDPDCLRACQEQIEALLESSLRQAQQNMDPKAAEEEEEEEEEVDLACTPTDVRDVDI
Test [4] concerns the target CDK6/Cyclin D3 (Homo sapiens (Human), UniProt Q00534). Kind of test: CDK6/Cyclin D3 mobility shift assay. The test is classed as biochemical. The settings on record: activated CDK6/Cyclin D3, 3.5 mM ATP, Morrison fit; read-out: CDK6_D3 Ki.

One may read the pIC50 as the IC50 on a negative log10 scale, so that one unit is a factor of ten. Broadly, the pKi is −log10 of the Ki, conventionally taken in molar units.

CDK4, sequence (P11802 2-303): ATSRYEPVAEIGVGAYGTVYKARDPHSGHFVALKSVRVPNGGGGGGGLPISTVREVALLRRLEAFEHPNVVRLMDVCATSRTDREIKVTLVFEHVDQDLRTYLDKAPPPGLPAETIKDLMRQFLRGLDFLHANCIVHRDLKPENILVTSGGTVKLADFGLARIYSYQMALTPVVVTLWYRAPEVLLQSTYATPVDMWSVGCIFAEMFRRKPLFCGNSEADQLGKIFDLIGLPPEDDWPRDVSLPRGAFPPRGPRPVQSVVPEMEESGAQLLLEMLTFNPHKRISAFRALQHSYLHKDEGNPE
CDK4, sequence (P24385 whole entry partner): as the sequence (P24385 whole entry partner) above
CDK6/Cyclin D3, sequence (Q00534 whole entry): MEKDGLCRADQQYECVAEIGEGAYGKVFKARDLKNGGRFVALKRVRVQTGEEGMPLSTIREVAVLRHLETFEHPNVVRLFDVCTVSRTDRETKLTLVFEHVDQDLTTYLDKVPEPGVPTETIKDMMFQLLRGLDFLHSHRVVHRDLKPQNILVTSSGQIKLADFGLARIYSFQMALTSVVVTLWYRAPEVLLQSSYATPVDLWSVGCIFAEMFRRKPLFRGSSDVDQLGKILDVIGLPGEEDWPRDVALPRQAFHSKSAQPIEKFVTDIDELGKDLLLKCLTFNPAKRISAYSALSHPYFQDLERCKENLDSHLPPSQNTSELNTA
CDK6/Cyclin D3, sequence (P30281 whole entry partner): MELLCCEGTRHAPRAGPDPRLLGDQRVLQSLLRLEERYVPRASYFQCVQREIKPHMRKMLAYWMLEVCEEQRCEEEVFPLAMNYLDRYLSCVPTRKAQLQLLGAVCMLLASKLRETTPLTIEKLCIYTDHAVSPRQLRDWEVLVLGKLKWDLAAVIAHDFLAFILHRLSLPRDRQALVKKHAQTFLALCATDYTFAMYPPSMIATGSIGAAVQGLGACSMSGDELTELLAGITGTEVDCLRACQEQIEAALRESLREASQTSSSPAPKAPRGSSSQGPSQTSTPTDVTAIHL
CDK6, sequence (Q00534 whole entry): as the sequence (Q00534 whole entry) above
CDK6, sequence (P30281 whole entry partner): as the sequence (P30281 whole entry partner) above

On to `CC(C)n1c(CN(C)C)nc2c(F)cc(-c3nc(N[C@@H]4CCOC[C@H]4O)ncc3Cl)cc21` [Example H02, 1,5-anhydro-3-[(5-chloro-4-{2-[(dimethylamino)methyl]-4-fluoro-1-(propan-2-yl)-1H-benzimidazol-6-yl}pyrimidin-2-yl)amino]-2,3-dideoxy-D-threo-pentitol], for which the pIC50 is 7.28 in test [1] and 6.93 in test [2]. In addition, the negative-log Ki (pKi) in test [3] was 9.10; in test [4] it was 7.70.
In the case of `COCC(C)n1c(C)nc2c(F)cc(-c3nc(N[C@@H]4CCN(S(C)(=O)=O)C[C@H]4O)ncc3Cl)cc21` (single isomer, unassigned) [Example A73], the results for the negative logarithm of the IC50 (pIC50) in test [1] and in test [2] were 7.14 and 6.73, respectively. Also, the pKi was 9.05 in test [3] and 7.79 in test [4].
In the same order, the values of `CC(C)(C)n1cnc2c(F)cc(-c3nc(N[C@@H]4CCN(C(=O)C5(F)CNC5)C[C@H]4O)ncc3Cl)cc21` [Example F26, [(3R,4R)-4-{[4-(1-tert-butyl-4-fluoro-1H-benzimidazol-6-yl)-5-chloropyrimidin-2-yl]amino}-3-hydroxypiperidin-1-yl](3-fluoroazetidin-3-yl)methanone] are 6.85, 6.74, 10.00 and 8.34.
Consider `COCc1nc2c(F)cc(-c3nc(N[C@@H]4CCN(S(C)(=O)=O)C[C@H]4O)ncc3Cl)cc2n1C(C)C` [Example A75, (3R,4R)-4-({5-chloro-4-[4-fluoro-2-(methoxymethyl)-1-(propan-2-yl)-1H-benzimidazol-6-yl]pyrimidin-2-yl}amino)-1-(methanesulfonyl)piperidin-3-ol], for which the negative-log IC50 (pIC50) in test [1] is 7.48; in test [2] it was 6.99. Further, the pKi was 9.52 in test [3] and 8.30 in test [4].
`CC(C)n1c(CNC2COC2)nc2c(F)cc(-c3nc(N[C@@H]4CCN(S(C)(=O)=O)C[C@H]4O)ncc3Cl)cc21` [Example H09, (3R,4R)-4-({5-chloro-4-[4-fluoro-2-{[(oxetan-3-yl)amino]methyl}-1-(propan-2-yl)-1H-benzimidazol-6-yl]pyrimidin-2-yl}amino)-1-(methanesulfonyl)piperidin-3-ol]: the pIC50 in test [1] is 6.69; in test [2] it was 6.64. Besides, the negative logarithm of the Ki (pKi) in test [3] is 9.05; in test [4] it was 7.73.
As to `CC(C)n1c(CC(C)(C)N)nc2c(F)cc(-c3nc(N[C@@H]4CCOC[C@H]4O)ncc3Cl)cc21` [Example A45, 3-({4-[2-(2-amino-2-methylpropyl)-4-fluoro-1-(propan-2-yl)-1H-benzimidazol-6-yl]-5-chloropyrimidin-2-yl}amino)-1,5-anhydro-2,3-dideoxy-D-threo-pentitol], the negative logarithm of the IC50 (pIC50) in test [1] is 7.18; in test [2], 6.33. Moreover, the pKi is 9.00 in test [3] and 7.28 in test [4].
For the compound `CC(N)c1nc2c(F)cc(-c3nc(N[C@@H]4CCN(S(C)(=O)=O)C[C@H]4O)ncc3Cl)cc2n1C(C)C` (single isomer, unassigned) [Example A47], the negative-log IC50 (pIC50) is 6.42 in test [1] and 6.43 in test [2]. Further, the figures for the pKi in test [3] and in test [4] were 9.00 and 7.61, respectively.
Turning to `Cn1nc2c(F)cc(-c3nc(N[C@@H]4CCOC[C@H]4O)ncc3Cl)cc2c1C(C)(C)N` [Example A49, 3-({4-[3-(2-aminopropan-2-yl)-7-fluoro-2-methyl-2H-indazol-5-yl]-5-chloropyrimidin-2-yl}amino)-1,5-anhydro-2,3-dideoxy-D-threo-pentitol], the negative logarithm of the IC50 (pIC50) was 7.12 in test [1] and 6.66 in test [2]. In addition, the pKi in test [3] is 9.15; in test [4] it was 7.84.
`CC(C)n1c(C(C)(C)O)nc2c(F)cc(-c3nc(N[C@@H]4CCN(S(C)(=O)=O)C[C@H]4O)ncc3Cl)cc21` [Example A91, (3R,4R)-4-({5-chloro-4-[4-fluoro-2-(2-hydroxypropan-2-yl)-1-(propan-2-yl)-1H-benzimidazol-6-yl]pyrimidin-2-yl}amino)-1-(methanesulfonyl)piperidin-3-ol]: the negative logarithm of the IC50 (pIC50) in test [1] is 7.83; in test [2], 7.59. Besides, the figures for the negative-log Ki (pKi) in test [3] and in test [4] were 10.00 and 8.77, respectively.
With `CC(C)(C)n1cnc2c(F)cc(-c3cc(N[C@@H]4CCN(C(=O)C(F)(F)CN)C[C@H]4O)ncc3Cl)cc21` [Example F32, 3-amino-1-[(3R,4R)-4-{[4-(1-tert-butyl-4-fluoro-1H-benzimidazol-6-yl)-5-chloropyridin-2-yl]amino}-3-hydroxypiperidin-1-yl]-2,2-difluoropropan-1-one], the pIC50 in test [1] is 6.77; in test [2] it was 6.20. Also, the pKi was 9.05 in test [3] and 7.89 in test [4].
Consider `CC1(C)OCCn2nc3c(F)cc(-c4nc(N[C@@H]5CCOC[C@H]5O)ncc4Cl)cc3c21` [Example A27], for which the negative logarithm of the IC50 (pIC50) is 7.12 in test [1] and 6.57 in test [2]. Also, the pKi in test [3] is 9.00; in test [4], 7.80.
For the compound `C[C@@H](O)c1nc2c(F)cc(-c3nc(N[C@@H]4CCOC[C@H]4O)ncc3Cl)cc2n1C(C)(C)C` [Example A60, 1,5-anhydro-3-[(4-{1-tert-butyl-4-fluoro-2-[(1R)-1-hydroxyethyl]-1H-benzimidazol-6-yl}-5-chloropyrimidin-2-yl)amino]-2,3-dideoxy-D-threo-pentitol], the pIC50 in test [1] was 7.19; in test [2], 6.72. Besides, the pKi in test [3] was 8.80; in test [4], 7.47.
As for `Cc1nc2c(F)cc(-c3nc(N[C@@H]4CCN(S(C)(=O)=O)C[C@H]4O)ncc3Cl)cc2n1CC(C)N` (stereo partly drawn) [Example A40, (3R,4R)-4-({4-[1-(2-aminopropyl)-4-fluoro-2-methyl-1H-benzimidazol-6-yl]-5-chloropyrimidin-2-yl}amino)-1-(methanesulfonyl)piperidin-3-ol], the pIC50 in test [1] was 7.07; in test [2] it was 6.46. In addition, the pKi in test [3] was 9.52; in test [4] it was 8.46.
Take `CC1CNCc2nc3c(F)cc(-c4nc(N[C@@H]5CCOC[C@H]5O)ncc4Cl)cc3n21` (single isomer, unassigned) [Example A55, 1,5-anhydro-3-{[5-chloro-4-(9-fluoro-4-methyl-1,2,3,4-tetrahydropyrazino[1,2-a]benzimidazol-7-yl)pyrimidin-2-yl]amino}-2,3-dideoxy-D-threo-pentitol]: the pIC50 in test [1] was 6.70; in test [2] it was 6.55. Also, the negative-log Ki (pKi) was 8.49 in test [3] and 7.19 in test [4].
`Cc1nc2cc(F)c(-c3nc(N[C@@H]4CCN(S(C)(=O)=O)C[C@H]4O)ncc3Cl)cc2n1C(C)C` [Example A06]: the negative-log IC50 (pIC50) in test [1] is 7.06; in test [2] it was 6.72. The pKi in test [3] was 8.85; in test [4], 7.76.
Turning to `Cc1nc2c(F)cc(-c3ccnc(N[C@@H]4CCN(S(C)(=O)=O)C[C@H]4O)n3)cc2n1C(C)C` [Example A04], the values for the pIC50 in test [1] and in test [2] were 6.48 and 6.54, respectively. The pKi in test [3] is 9.22; in test [4] it was 7.94.
In the same order, the values of `CC(C)c1c2cc(-c3nc(N[C@@H]4CCN(S(C)(=O)=O)C[C@H]4O)ncc3Cl)ccc2nn1C` [Example A28] are 7.00, 6.88, 9.30 and 8.21.
